Literature values in US11737471B2, “Products having high efficacy omega-6/omega-3 balanced polyunsaturated fatty acids” (OMEGA FOODS, LLC, priority 2011, dated 2023).

Conditions: by some estimates

In the case of `CC/C=C\C/C=C\C/C=C\CCCCCCCC(=O)O` [ALA, alpha-linolenic acid], the “conversion of ALA to DHA and EPA by the human body” value is listed as “less than 1%”.
